Experiments:
Assay type in all cases: biochemical
Settings in all cases: 76 μM chalcone, FRET assay
R197A-SrtA = R197A-SrtA (Staphylococcus aureus, UniProt Q2FV99, R197A)
I182A-SrtA = I182A-SrtA (Staphylococcus aureus, UniProt Q2FV99, I182A)
V168A-SrtA = V168A-SrtA (Staphylococcus aureus, UniProt Q2FV99, V168A)

Measured: sensitivity of mutant SrtA to chalcone compared with WT-SrtA

O=C(/C=C/c1ccccc1)c1ccccc1 [chalcone]
significantly less sensitive: all assays above
